ChEMBL document CHEMBL4507303, “Data for DCP probe TP-004” (2021)

How the values were obtained:
[1] = target: Casein kinase I isoform gamma-3 (Homo sapiens) (UniProt Q9Y6M4); conditions: Compound concentration 1000.0 nM
[2] = target: Tyrosine-protein kinase Fer (Homo sapiens) (UniProt P16591); conditions: Compound concentration 1000.0 nM
[3] = target: Receptor-interacting serine/threonine-protein kinase 4 (Homo sapiens) (UniProt P57078); conditions: Compound concentration 1000.0 nM
[4] = target: Casein kinase I isoform alpha-like (Homo sapiens) (UniProt Q8N752); conditions: Compound concentration 1000.0 nM
[5] = target: Homeodomain-interacting protein kinase 3 (Homo sapiens) (UniProt Q9H422); conditions: Compound concentration 1000.0 nM
[6] = target: Serine/threonine-protein kinase 25 (Homo sapiens) (UniProt O00506); conditions: Compound concentration 1000.0 nM
[7] = target: BDNF/NT-3 growth factors receptor (Homo sapiens) (UniProt Q16620); conditions: Compound concentration 1000.0 nM
[8] = target: Vascular endothelial growth factor receptor 1 (Homo sapiens) (UniProt P17948); conditions: Compound concentration 1000.0 nM
[9] = target: Wee1-like protein kinase (Homo sapiens) (UniProt P30291); conditions: Compound concentration 1000.0 nM
[10] = target: Hepatocyte growth factor receptor (Homo sapiens) (UniProt P08581); conditions: Compound concentration 1000.0 nM
[11] = target: Ephrin type-B receptor 3 (Homo sapiens) (UniProt P54753); conditions: Compound concentration 1000.0 nM
[12] = target: Proto-oncogene tyrosine-protein kinase receptor Ret (Homo sapiens) (UniProt P07949); conditions: Compound concentration 1000.0 nM
[13] = target: Calcium/calmodulin-dependent protein kinase type 1B (Homo sapiens) (UniProt Q6P2M8); conditions: Compound concentration 1000.0 nM
[14] = target: Ephrin type-A receptor 7 (Homo sapiens) (UniProt Q15375); conditions: Compound concentration 1000.0 nM
[15] = target: Serine/threonine-protein kinase MARK2 (Homo sapiens) (UniProt Q7KZI7); conditions: Compound concentration 1000.0 nM
[16] = target: Ribosomal protein S6 kinase alpha-5 (Homo sapiens) (UniProt O75582); conditions: Compound concentration 1000.0 nM
[17] = target: Serine/threonine-protein kinase 10 (Homo sapiens) (UniProt O94804); conditions: Compound concentration 1000.0 nM
[18] = target: 5-hydroxytryptamine receptor 1D (Homo sapiens) (UniProt P28221); conditions: Compound concentration 10.0 uM
[19] = target: Cyclin-dependent kinase 2 (Homo sapiens) (UniProt P24941); conditions: Compound concentration 1000.0 nM
[20] = target: Serine/threonine-protein kinase PLK4 (Homo sapiens) (UniProt O00444); conditions: Compound concentration 1000.0 nM
[21] = target: LIM domain kinase 1 (Homo sapiens) (UniProt P53667); conditions: Compound concentration 1000.0 nM
[22] = target: Ribosomal protein S6 kinase alpha-1 (Homo sapiens) (UniProt Q15418); conditions: Compound concentration 1000.0 nM
[23] = target: Protein-tyrosine kinase 6 (Homo sapiens) (UniProt Q13882); conditions: Compound concentration 1000.0 nM
[24] = target: Activin receptor type-2A (Homo sapiens) (UniProt P27037); conditions: Compound concentration 1000.0 nM
[25] = target: Macrophage colony-stimulating factor 1 receptor (Homo sapiens) (UniProt P07333); conditions: Compound concentration 1000.0 nM
[26] = target: Histamine H1 receptor (Homo sapiens) (UniProt P35367); conditions: Compound concentration 10.0 uM
[27] = system: Epidermal growth factor receptor (Homo sapiens), P00533 [UNDEFINED MUTATION]; conditions: Compound concentration 1000.0 nM
[28] = target: Cyclin-dependent kinase-like 2 (Homo sapiens) (UniProt Q92772); conditions: Compound concentration 1000.0 nM
[29] = target: Ephrin type-A receptor 5 (Homo sapiens) (UniProt P54756); conditions: Compound concentration 1000.0 nM
[30] = target: Alpha-1B adrenergic receptor (Homo sapiens) (UniProt P35368); conditions: Compound concentration 10.0 uM
[31] = target: Tyrosine-protein kinase Lck (Homo sapiens) (UniProt P06239); conditions: Compound concentration 1000.0 nM
[32] = target: Ephrin type-B receptor 2 (Homo sapiens) (UniProt P29323); conditions: Compound concentration 1000.0 nM
[33] = target: Cyclin-dependent kinase 16 (Homo sapiens) (UniProt Q00536); conditions: Compound concentration 1000.0 nM
[34] = target: Mitogen-activated protein kinase kinase kinase 1 (Homo sapiens) (UniProt Q13233); conditions: Compound concentration 1000.0 nM
[35] = system: Serine/threonine-protein kinase B-raf (Homo sapiens), P15056 [V600E]; conditions: Compound concentration 1000.0 nM
[36] = target: Serine/threonine-protein kinase 17A (Homo sapiens) (UniProt Q9UEE5); conditions: Compound concentration 1000.0 nM
[37] = target: Bone morphogenetic protein receptor type-1A (Homo sapiens) (UniProt P36894); conditions: Compound concentration 1000.0 nM
[38] = target: G protein-coupled receptor kinase 4 (Homo sapiens) (UniProt P32298); conditions: Compound concentration 1000.0 nM
[39] = target: MAP kinase-interacting serine/threonine-protein kinase 1 (Homo sapiens) (UniProt Q9BUB5); conditions: Compound concentration 1000.0 nM
[40] = target: Tyrosine-protein kinase receptor UFO (Homo sapiens) (UniProt P30530); conditions: Compound concentration 1000.0 nM
[41] = target: Mitogen-activated protein kinase kinase kinase 15 (Homo sapiens) (UniProt Q6ZN16); conditions: Compound concentration 1000.0 nM
[42] = target: Ephrin type-A receptor 1 (Homo sapiens) (UniProt P21709); conditions: Compound concentration 1000.0 nM
[43] = system: Proto-oncogene tyrosine-protein kinase receptor Ret (Homo sapiens), P07949 [V804L]; conditions: Compound concentration 1000.0 nM
[44] = target: Ribosomal protein S6 kinase alpha-2 (Homo sapiens) (UniProt Q15349); conditions: Compound concentration 1000.0 nM
[45] = target: Histamine H4 receptor (Homo sapiens) (UniProt Q9H3N8); conditions: Compound concentration 10.0 uM
[46] = target: Serine/threonine-protein kinase ULK3 (Homo sapiens) (UniProt Q6PHR2); conditions: Compound concentration 1000.0 nM

Cyclin-dependent kinase-like 2 (Homo sapiens), sequence (Q92772 whole entry): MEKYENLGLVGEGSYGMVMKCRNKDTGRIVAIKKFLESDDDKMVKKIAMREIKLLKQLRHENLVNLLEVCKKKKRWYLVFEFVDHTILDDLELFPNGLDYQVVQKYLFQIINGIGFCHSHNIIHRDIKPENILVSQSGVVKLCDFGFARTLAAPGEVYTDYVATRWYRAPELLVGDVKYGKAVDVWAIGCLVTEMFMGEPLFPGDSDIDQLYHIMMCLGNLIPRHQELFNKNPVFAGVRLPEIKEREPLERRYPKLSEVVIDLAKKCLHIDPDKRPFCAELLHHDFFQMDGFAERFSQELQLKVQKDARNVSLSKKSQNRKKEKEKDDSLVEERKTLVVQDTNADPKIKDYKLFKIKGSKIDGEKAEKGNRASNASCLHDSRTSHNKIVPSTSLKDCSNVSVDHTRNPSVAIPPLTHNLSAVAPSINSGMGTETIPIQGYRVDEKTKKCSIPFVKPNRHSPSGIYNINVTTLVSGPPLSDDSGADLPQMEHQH
Vascular endothelial growth factor receptor 1 (Homo sapiens), sequence (P17948 whole entry): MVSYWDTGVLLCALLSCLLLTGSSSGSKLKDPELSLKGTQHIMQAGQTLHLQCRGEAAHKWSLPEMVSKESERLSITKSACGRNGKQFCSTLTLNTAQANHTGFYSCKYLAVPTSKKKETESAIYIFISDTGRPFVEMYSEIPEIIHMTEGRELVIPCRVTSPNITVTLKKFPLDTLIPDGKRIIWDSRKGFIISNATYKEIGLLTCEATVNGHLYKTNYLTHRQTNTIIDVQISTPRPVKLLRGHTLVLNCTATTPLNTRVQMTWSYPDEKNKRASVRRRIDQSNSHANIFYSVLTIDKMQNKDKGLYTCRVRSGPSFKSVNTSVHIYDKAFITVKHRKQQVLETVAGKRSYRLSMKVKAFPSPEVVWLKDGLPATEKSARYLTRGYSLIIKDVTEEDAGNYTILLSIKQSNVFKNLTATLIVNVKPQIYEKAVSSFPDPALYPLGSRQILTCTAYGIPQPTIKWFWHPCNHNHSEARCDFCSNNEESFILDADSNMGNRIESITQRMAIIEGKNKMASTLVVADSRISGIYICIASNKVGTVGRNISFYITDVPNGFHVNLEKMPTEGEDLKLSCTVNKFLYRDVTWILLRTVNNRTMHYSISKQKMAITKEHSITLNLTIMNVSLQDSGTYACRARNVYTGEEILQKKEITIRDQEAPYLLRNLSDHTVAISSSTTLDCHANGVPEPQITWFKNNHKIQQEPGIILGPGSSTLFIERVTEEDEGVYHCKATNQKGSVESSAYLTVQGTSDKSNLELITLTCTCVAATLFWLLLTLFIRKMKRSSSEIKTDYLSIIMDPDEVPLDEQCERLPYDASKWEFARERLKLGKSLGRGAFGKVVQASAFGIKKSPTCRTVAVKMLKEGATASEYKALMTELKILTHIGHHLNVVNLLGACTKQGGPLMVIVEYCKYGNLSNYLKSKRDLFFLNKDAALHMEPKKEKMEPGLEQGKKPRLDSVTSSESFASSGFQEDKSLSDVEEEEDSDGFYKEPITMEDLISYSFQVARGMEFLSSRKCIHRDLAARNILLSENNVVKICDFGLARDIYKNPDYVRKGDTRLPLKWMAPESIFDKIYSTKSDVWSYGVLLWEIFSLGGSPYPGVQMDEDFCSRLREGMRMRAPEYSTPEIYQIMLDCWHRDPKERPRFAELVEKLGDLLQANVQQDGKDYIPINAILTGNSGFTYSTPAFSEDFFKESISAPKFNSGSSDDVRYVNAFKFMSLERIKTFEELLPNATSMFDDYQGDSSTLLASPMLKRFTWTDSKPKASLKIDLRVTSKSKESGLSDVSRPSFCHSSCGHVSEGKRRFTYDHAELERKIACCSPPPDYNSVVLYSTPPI
Serine/threonine-protein kinase MARK2 (Homo sapiens), sequence (Q7KZI7 whole entry): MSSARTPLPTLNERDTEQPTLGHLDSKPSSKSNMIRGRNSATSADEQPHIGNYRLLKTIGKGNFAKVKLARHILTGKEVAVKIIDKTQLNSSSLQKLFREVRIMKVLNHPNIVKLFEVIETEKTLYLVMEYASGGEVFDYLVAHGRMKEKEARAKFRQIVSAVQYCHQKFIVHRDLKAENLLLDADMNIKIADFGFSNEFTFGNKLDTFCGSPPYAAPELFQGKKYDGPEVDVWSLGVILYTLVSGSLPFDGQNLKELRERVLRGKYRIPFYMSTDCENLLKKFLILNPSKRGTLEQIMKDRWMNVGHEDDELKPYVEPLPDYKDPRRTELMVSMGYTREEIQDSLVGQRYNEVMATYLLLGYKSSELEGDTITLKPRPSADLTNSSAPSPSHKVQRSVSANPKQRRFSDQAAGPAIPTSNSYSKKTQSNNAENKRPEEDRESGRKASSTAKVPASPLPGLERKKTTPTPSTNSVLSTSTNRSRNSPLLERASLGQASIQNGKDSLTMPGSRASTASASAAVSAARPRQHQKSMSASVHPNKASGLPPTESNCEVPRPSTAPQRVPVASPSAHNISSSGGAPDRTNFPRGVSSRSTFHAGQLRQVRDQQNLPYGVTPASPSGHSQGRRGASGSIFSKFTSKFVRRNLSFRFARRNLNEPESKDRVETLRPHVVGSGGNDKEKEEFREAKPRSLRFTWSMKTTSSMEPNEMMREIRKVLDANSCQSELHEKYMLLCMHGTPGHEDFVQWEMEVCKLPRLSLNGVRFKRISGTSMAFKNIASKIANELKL
Proto-oncogene tyrosine-protein kinase receptor Ret (Homo sapiens), P07949 [V804L], sequence (P07949 whole entry V804L): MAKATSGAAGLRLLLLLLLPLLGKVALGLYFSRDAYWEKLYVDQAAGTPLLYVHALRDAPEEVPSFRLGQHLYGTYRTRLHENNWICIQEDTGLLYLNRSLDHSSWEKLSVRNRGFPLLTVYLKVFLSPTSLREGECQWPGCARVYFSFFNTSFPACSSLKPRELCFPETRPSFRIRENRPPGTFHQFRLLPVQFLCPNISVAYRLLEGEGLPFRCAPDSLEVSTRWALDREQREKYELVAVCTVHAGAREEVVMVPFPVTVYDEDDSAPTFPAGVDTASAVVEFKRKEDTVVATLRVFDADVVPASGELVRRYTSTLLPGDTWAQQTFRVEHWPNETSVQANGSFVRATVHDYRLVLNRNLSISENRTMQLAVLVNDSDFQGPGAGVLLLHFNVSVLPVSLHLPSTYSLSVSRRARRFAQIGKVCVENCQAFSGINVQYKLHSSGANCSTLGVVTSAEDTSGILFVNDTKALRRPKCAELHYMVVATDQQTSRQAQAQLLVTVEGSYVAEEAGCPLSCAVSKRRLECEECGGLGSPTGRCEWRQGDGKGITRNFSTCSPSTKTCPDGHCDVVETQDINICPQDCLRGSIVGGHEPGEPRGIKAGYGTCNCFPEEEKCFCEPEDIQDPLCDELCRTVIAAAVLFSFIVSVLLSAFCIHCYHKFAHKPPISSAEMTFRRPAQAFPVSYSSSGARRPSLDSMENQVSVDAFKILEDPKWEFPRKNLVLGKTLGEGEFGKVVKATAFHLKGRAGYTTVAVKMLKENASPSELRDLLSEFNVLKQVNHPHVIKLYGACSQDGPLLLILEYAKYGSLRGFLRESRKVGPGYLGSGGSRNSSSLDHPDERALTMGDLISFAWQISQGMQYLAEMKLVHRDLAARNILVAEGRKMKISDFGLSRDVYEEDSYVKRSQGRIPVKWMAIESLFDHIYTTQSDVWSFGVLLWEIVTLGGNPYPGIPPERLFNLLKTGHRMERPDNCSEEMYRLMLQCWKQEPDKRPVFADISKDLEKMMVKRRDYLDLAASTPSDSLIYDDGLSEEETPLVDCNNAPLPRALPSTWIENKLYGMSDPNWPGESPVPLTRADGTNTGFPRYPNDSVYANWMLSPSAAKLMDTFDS
Histamine H4 receptor (Homo sapiens), sequence (Q9H3N8 whole entry): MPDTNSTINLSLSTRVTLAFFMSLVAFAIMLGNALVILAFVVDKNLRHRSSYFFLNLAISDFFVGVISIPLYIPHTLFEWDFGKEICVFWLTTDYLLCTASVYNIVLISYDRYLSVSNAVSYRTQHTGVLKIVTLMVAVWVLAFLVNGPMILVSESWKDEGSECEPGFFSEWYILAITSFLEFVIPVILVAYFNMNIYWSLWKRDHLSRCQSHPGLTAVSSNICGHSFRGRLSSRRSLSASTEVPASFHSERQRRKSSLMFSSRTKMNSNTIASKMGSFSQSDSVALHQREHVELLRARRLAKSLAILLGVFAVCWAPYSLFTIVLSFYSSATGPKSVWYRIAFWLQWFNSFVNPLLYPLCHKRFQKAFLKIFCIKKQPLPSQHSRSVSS
Casein kinase I isoform alpha-like (Homo sapiens), sequence (Q8N752 whole entry, canonical isoform): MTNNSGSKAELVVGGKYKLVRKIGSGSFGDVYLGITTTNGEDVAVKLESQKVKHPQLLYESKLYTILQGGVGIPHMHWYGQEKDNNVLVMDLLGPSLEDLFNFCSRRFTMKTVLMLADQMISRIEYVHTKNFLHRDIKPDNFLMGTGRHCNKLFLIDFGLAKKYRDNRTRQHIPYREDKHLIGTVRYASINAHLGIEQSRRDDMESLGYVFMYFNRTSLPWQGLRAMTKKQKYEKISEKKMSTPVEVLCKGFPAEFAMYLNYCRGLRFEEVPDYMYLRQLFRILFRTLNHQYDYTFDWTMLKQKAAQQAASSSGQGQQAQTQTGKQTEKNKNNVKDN
Activin receptor type-2A (Homo sapiens), sequence (P27037 whole entry): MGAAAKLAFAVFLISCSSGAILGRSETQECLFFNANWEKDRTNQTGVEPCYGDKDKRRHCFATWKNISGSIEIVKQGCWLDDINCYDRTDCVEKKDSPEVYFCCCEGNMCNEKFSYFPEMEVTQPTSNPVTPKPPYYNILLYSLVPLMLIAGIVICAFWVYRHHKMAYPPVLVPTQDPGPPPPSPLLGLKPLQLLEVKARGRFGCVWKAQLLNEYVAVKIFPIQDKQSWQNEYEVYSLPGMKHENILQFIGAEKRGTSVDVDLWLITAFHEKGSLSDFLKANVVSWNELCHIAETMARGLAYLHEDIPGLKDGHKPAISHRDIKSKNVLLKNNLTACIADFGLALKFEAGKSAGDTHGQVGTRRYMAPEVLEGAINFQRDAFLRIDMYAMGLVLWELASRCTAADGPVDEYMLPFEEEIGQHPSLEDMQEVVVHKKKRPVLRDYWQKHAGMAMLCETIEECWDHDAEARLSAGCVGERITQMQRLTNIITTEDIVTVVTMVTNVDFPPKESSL
Proto-oncogene tyrosine-protein kinase receptor Ret (Homo sapiens), sequence (P07949 whole entry): as the sequence (P07949 whole entry V804L) above, with L804V counted along it

Cc1nc(N2CC[C@@H](O)C2)ncc1-c1cc(C(F)(F)F)cc2[nH]ncc12 [TP-004]
inactive: residual activity [1] 74% | residual activity [2] 97% | residual activity [3] 60% | residual activity [4] 93% | residual activity [5] 54% | residual activity [6] 100% | residual activity [7] 53% | residual activity [8] 100% | residual activity [9] 73% | residual activity [10] 100% | residual activity [11] 100% | residual activity [12] 84% | residual activity [13] 90% | residual activity [14] 63% | residual activity [15] 100% | residual activity [16] 100% | residual activity [17] 100% | inhibition [18] -8.55% | residual activity [19] 94% | residual activity [20] 93% | residual activity [21] 85% | residual activity [22] 100% | residual activity [23] 89% | residual activity [24] 73% | residual activity [25] 82% | inhibition [26] 0.239% | residual activity [27] 83% | residual activity [28] 100% | residual activity [29] 100% | inhibition [30] 15.9% | residual activity [31] 100% | residual activity [32] 100% | residual activity [33] 75% | residual activity [34] 60% | residual activity [35] 77% | residual activity [36] 100% | residual activity [37] 100% | residual activity [38] 86% | residual activity [39] 61% | residual activity [40] 80% | residual activity [41] 100% | residual activity [42] 85% | residual activity [43] 100% | residual activity [44] 100% | inhibition [45] 12% | residual activity [46] 78%
